# Reference: patent US6586413B2, “Methods and compositions for reducing ischemic injury of the heart by administering adenosine receptor agonists and antagonists” (The United States of America as represented by the …, priority 1999, dated 2003)
# Key:
# [1] = system: Rat Brain A1 and A2-Receptors; conditions: cited from earlier work; for A1/A2 ratio: rat brain, reference 31; for A1/A2 ratio, value in square brackets: second value printed in brackets below, brackets not explained
# [2] = system: ventricular myocytes cultured from chick embryos; assay: Pharmacological preconditioning: 5 min exposure to agent, then 90 min simulated ischemia; type: cell-based; conditions: for effect of PLD inhibition on protective effect of MRS1760: ethanol (0.5%) or propranolol (100 μM) with 10 nM MRS1760
# Method: FIG. 14 is a graph showing that the partial A1 receptor agonist, 8-butylaminoCPA, mimics the cardioprotective effect of ischemic preconditioning. Ventricular myocytes were cultured from chick embryos 14 days in ovo. The ability of the partial A1 agonist, 8-butylaminoCPA (8-butylamino-N^6-cyclopentyladenosine), to induce preconditioning was determined. In brief, myocytes were exposed to 8-butylaminoCPA at the indicated concentrations for 5 min, incubated for 10 min with agonist-free medium, and then exposed to simulated ischemia for 90 min. The extent of myocyte injury was quantitated at the end of the 90 min period by determinating the percentage of cells killed and the amount of creatine kinase (CK) released (units per milligram of cell protein). Data are means±SE of values from five independent experiments.
# (§1) Determination of myocyte injury was made at the end of the ninety-minute hypoxia, at which time myocytes were taken out of the hypoxic incubator and re-exposed to room air (normal % O2). Aliquots of the media were then obtained for creatine kinase (CK) activity measurement, which is followed by quantitation of the number of viable cells. Measurement of basal level of cell injury was made after parallel incubation of control cells under normal % O2. The extent of hypoxia-induced injury to the ventricular cell was quantitatively determined by the percentages of cells killed and by the amount of CK released into the media according to a previously described method (16, 23). […] In brief, the media were replaced with a trypsin-EDTA buffer to detach the cells, which was then followed by sedimentation of the viable myocytes. Parallel changes in % cells killed and CK released (16, 23) further validated this assay for % cells killed. The amount of CK was measured as enzyme activity (unit/mg), and increases in CK activity above the control level were determined. The percentage of cells killed was calculated as the number of cells obtained from the control group (representing cells not subjected to any hypoxia or drug treatment) minus the number of cells from the treatment group divided by number of cells in control group multiplied by 100%.
# Media were then replaced with fresh media, which was then followed by exposure to 90-minute simulated ischemia and the data graphed.
# [3] = system: isolated cardiac myocytes; assay: Apoptotic cell death by DNA laddering on 1.5% agarose gel; type: cell-based; conditions: for apoptotic cell death caused by prolonged exposure to the agent: no ischemia, agents that increase intracellular calcium
# Method: Such smearing is indicative of a culmination of the apoptotic cell death pathway. Isolated cardiac myocytes were exposed to 90-min ischemia and 30-min reoxygenation (lanes 4 and 5). […] Lanes 1 and 2 represent myocytes not exposed to ischemia or any agent. Data were representative of three experiments.
# Isolated cardiac myocytes were exposed to prolonged moderate simulated ischemia (17 hours with 2-3% O2). Lane 3 represents myocytes not exposed to ischemia or any agent. Lane 5 represents myocytes exposed to 17 hours of ischemia. […] Data were representative of three experiments.
# Lane 3 represents myocytes not exposed to any agent. Lane 5 represents cardiac myocytes exposed (for three hours) to an agent (a P2X receptor agonist, 2-methylthioATP) known to increase intracellular calcium concentration. Prolonged exposure to 2-methylthioATP or UTP caused increased apoptosis (Lane 7). […] Data were representative of two experiments.
# The effects of agents which target the adenosine receptor on apoptosis were initially examined in isolated cardiac myocytes exposed to ischemia (for 90 minutes and 30 minutes of reoxygenation) or agents which increase intracellular calcium levels. Increasing the level of intracellular calcium concentration induces non-ischemia-related apoptosis in vitro. Apoptotic cell death of cardiac myocytes was assessed by determining the extent of smearing or “DNA laddering” on 1.5% agarose gels.
# [4] = system: cardiac ventricular myocytes cultured from chick embryos; assay: Hypoxia-induced myocyte injury, agent present during prolonged (90 min) hypoxia with glucose deprivation; type: cell-based; conditions: for effect of antagonist on A1 agonist (CCPA, CHA, ADAC)-induced cardioprotection: antagonist with A1 agonist during prolonged hypoxia; for effect of antagonist on A3 agonist (IB-MECA, Cl-IB-MECA)-induced cardioprotection: antagonist with A3 agonist during prolonged hypoxia; for cardioprotective effect when present during prolonged hypoxia (CK released, % myocytes killed): agonist present during prolonged hypoxia/simulated ischemia
# Method: Ventricular cells were cultured from chick embryos 14 days in ovo as previously described (16, 23). Cells were cultivated in a humidified 5% CO2-95% air mixture at 37° C. […] The medium was changed to a HEPES-buffered medium containing (mM) 139 NaCl, 4.7 KCl, 0.5 MgCl2, 0.9 CaCl2, 5 HEPES (N-2-hydroxyethylpiperazine-N′-2-ethanesulfonic acid) and 2% fetal bovine serum, pH 7.4, 37° C. before exposing the myocytes to the various conditions at 37° C. Control myocytes were maintained in the HEPES-buffered media under room air. Ninety-minute exposure of the myocytes to hypoxia with glucose deprivation was used to induce cell injury. Hypoxia was produced by placing the cells in a hypoxic incubator (NuAire) where O2 was replaced by N2 as previously described (16,23). Effects of adenosine receptor agonists and antagonists on the extent of myocyte injury were determined by exposure of the prepared cells to these agents during the prolonged hypoxia.
# as §1
# [5] = 8-SPT alone present during the hypoxia
# [6] = in the presence of adenosine and 8-SPT (100 μM) during hypoxia
Structure (SMILES),A1/A2 ratio [1],other results
Cn1c(=O)c2c(nc(C=Cc3cccc(F)c3)n2C)n(C)c1=O [27b],190,
OC[C@@]12C[C@@H]1[C@@H](n1cnc3c(NCc4cccc(I)c4)ncnc31)[C@H](O)[C@@H]2O [MRS1743],,"preconditioning / cardioprotective effect ([2]; agent alone, 5 min exposure before 90 min ischemia): exerting a potent preconditioning-like effect"
COc1cc(C=Cc2nc3c(c(=O)n(C)c(=O)n3C)n2C)cc(OC)c1OCC=CCNC(C)=O [compound 41],>50,
CCO [ethanol],,effect of PLD inhibition on protective effect of MRS1760 [2]: abolished the protective effect of MRS1760
Cn1c(=O)c2c(nc(C=Cc3cccc(NC(=O)OC(C)(C)C)c3)n2C)n(C)c1=O [compound 25],30,
COc1cc(C=Cc2nc3c(c(=O)n(C)c(=O)n3C)n2C)cc(OC)c1OC [44b],70,"A1/A2 ratio, value in square brackets [1]: [>5600]"
COc1ccc(C=Cc2nc3c(c(=O)n(C)c(=O)n3C)n2C)cc1 [29b],44,
COc1cc(C=Cc2nc3c(c(=O)n(C)c(=O)n3C)n2C)cc(OC)c1O [compound 35],19,
COc1cc(C=Cc2nc3c(c(=O)n(C)c(=O)n3C)n2C)cc(OC)c1OCCCCN [compound 38],36,
O=c1ccn([C@@H]2O[C@H](COP(=O)(O)OP(=O)(O)OP(=O)(O)O)[C@@H](O)[C@H]2O)c(=O)[nH]1 [UTP],,apoptotic cell death caused by prolonged exposure to the agent [3]: caused an increase in apoptotic cell death
COc1cc(C=Cc2nc3c([nH]2)c(=O)n(C)c(=O)n3C)cc(OC)c1 [33a],25,
Cn1c(=O)c2c(nc(/C=C/c3cccc(C(F)(F)F)c3)n2C)n(C)c1=O [20b],25,
"CCOC(=O)C1=C(C)NC(c2ccccc2)=C(C(=O)OCC)C1/C=C/c1ccccc1 (stereo not drawn) [MRS 1097, 3,5-Diethyl 2-methyl-6-phenyl-4-[2-phenyl-(E)-vinyl]-1,4-(1)-dihydropyridine-3,5-dicarboxylate]",,"effect of antagonist on A1 agonist (CCPA, CHA, ADAC)-induced cardioprotection [4]: neither MRS 1191 nor MRS 1097 was able to block the CCPA-induced cardioprotection; effect of antagonist on A3 agonist (IB-MECA, Cl-IB-MECA)-induced cardioprotection [4]: able to block the cardioprotective effect of Cl-IB-MECA"
COc1ccccc1C=Cc1nc2c(c(=O)n(C)c(=O)n2C)n1C [17b],18,
CCCn1c(=O)c2c(nc(C=Cc3cc(OC)cc(OC)c3)n2C)n(CCC)c1=O [53b],110,
Cn1c(=O)c2c(nc(C=Cc3cc(F)cc(F)c3)n2C)n(C)c1=O [34b],230,
C=CCn1c(=O)c2c(nc(C=Cc3cc(OC)c(OC)c(OC)c3)n2C)n(CC=C)c1=O [compound 46],13,"A1/A2 ratio, value in square brackets [1]: [>6700]"
Cn1c(=O)c2c(nc(C=Cc3cccc([N+](=O)[O-])c3)n2C)n(C)c1=O [21b],11,
Cn1c(=O)c2c(nc(C=Cc3cccc(NC(=O)CCC(=O)O)c3)n2C)n(C)c1=O [compound 24],250,
COc1ccc(C=Cc2nc3c(c(=O)n(C)c(=O)n3C)n2C)cc1OC [32b],70,

Structure (SMILES),A1/A2 ratio [1],other results
"Cn1c(=O)c2[nH]c(-c3ccc(S(=O)(=O)O)cc3)nc2n(C)c1=O [8-SPT, 8-sulfophenyl-theophylline]",,"% cells killed [4, 5]: 31.6±1.5%; CK released [4, 5]: 29.6±1.2 unit/mg"
COc1cccc(C=Cc2nc3c(c(=O)n(C)c(=O)n3C)n2C)c1 [19b],64,
CC(C)NCC(O)COc1cccc2ccccc12 (stereo not drawn) [Propranolol],,effect of PLD inhibition on protective effect of MRS1760 [2]: also abolished the protective effect of MRS1760
"OC[C@H]1O[C@@H](n2cnc3c(NC4CCCCC4)ncnc32)[C@H](O)[C@@H]1O [CHA, N^6-cyclohexyladenosine]",,"cardioprotective effect when present during prolonged hypoxia (CK released, % myocytes killed) [4]: able to protect the myocytes when present during the prolonged hypoxia"
Cn1c(=O)c2c(nc(C=Cc3cccc(N)c3)n2C)n(C)c1=O [22b],30,
CNC(=O)C1OC(n2cnc3c(NCc4cccc(S(=O)(=O)O)c4)ncnc32)C(O)C1O (stereo not drawn) [MRS 1340],,"creatine kinase released during prolonged simulated ischemia ([4]; increasing concentrations, presence and absence of DPCPX (FIGS. 3A-3D)): cardioprotective effects"
COc1ccc2c(c1)CC[C@@H]1[C@@H]2CC[C@]2(C)[C@@H](NCCCCCCN3C(=O)C=CC3=O)CC[C@@H]12 [U-73122],,effect of PLC inhibitor on protective response to 8-butylaminoCPA ([2]; U-73122 (10 μM) with 1 μM 8-butylaminoCPA): able to block the protective response to 8-butylaminoCPA
"Cn1c(=O)c2c(nc(C=Cc3cccc(Cl)c3)n2C)n(C)c1=O [CSC, 8-(3-chlorostyryl)caffeine]",,"apoptosis (DNA laddering) ([3]; prolonged moderate ischemia, 17 hours with 2-3% O2): reduced apoptosis induced by the prolonged moderate ischemia"
COc1cc(C=Cc2nc3c(c(=O)n(C)c(=O)n3C)n2C)cc(OC)c1 [33b],>200,
COc1ccc(C=Cc2nc3c(c(=O)n(C)c(=O)n3C)n2C)c(OC)c1OC [43b],34,
COc1cc(C=Cc2nc3c(c(=O)n(C)c(=O)n3C)n2C)cc(OC)c1OCC=CCNC(=O)OC(C)(C)C [compound 42],>40,
"CNC(=O)[C@H]1O[C@@H](n2cnc3c(NCc4cccc(I)c4)ncnc32)[C@H](O)[C@@H]1O [IB-MECA, N6-(3-iodobenzyl)adenosine-5′-N-methyluronamide]",,"cardioprotective effect when present during prolonged hypoxia (CK released, % myocytes killed) [4]: capable of protecting the cardiac myocytes against hypoxia-induced injury"
CC(=O)Nc1cccc(C=Cc2nc3c(c(=O)n(C)c(=O)n3C)n2C)c1 [compound 23],240,
Cn1c(=O)c2c(nc(C=Cc3cccc(N(C(=O)OC(C)(C)C)C(=O)OC(C)(C)C)c3)n2C)n(C)c1=O [compound 26],15,
"CCCn1c(=O)c2[nH]c(C3CCCC3)nc2n(CCC)c1=O [DPCPX, 8-cyclopentyl-1,3-dipropylxanthine]",,"effect of antagonist on A1 agonist (CCPA, CHA, ADAC)-induced cardioprotection [4]: blocked by the A1 antagonist DPCPX; effect of antagonist on A3 agonist (IB-MECA, Cl-IB-MECA)-induced cardioprotection [4]: had no effect on the ability of IB-MECA or Cl-IB-MECA to mediate their cardioprotective effects"
Nc1ncnc2c1ncn2[C@@H]1O[C@H](CO)[C@@H](O)[C@H]1O [Adenosine],,"CK released ([4]; adenosine 10 μM added during ninety-minute hypoxia, hypoxia alone 28.5±1.5): 14.9±3 unit/mg; % cells killed ([4]; adenosine 10 μM added during ninety-minute hypoxia, hypoxia alone 30±2): 12±2%; % cells killed [4, 6]: 28±3%; CK released [4, 6]: 31±5 unit/mg"
COc1cc(C=Cc2nc3c(c(=O)n(C)c(=O)n3C)n2C)cc(OC)c1OC(C)=O [compound 36],93,
COc1cc(C=Cc2nc3c(c(=O)n(C)c(=O)n3C)n2C)cc(OC)c1OCC=CCN [compound 40],28,
COc1cc(C=Cc2nc3c(c(=O)n(C)c(=O)n3C)n2C)cc(OC)c1OCCCCNC(=O)OC(C)(C)C [compound 39],42,
CSc1nc(N)c2ncn([C@@H]3O[C@H](COP(=O)(O)OP(=O)(O)OP(=O)(O)O)[C@@H](O)[C@H]3O)c2n1 [2-methylthioATP],,apoptotic cell death caused by prolonged exposure to the agent [3]: caused an increase in apoptotic cell death
